From PubChem BioAssay (NCI)
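GI50 = concentration required for 50% inhibition of growth. TGI: total growth inhibition.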

Tests used:
Assay in all cases: growth of human tumour cells (NCI), 384-well format
NCI-H23 lung = tested on: NCI-H23 lung
NCI-H322M lung = tested on: NCI-H322M lung
NCI-H460 NSCLC = tested on: NCI-H460 NSCLC
NCI-H522 lung = tested on: NCI-H522 lung
NCI/ADR-RES ovarian = tested on: NCI/ADR-RES ovarian
OVCAR-3 ovarian = tested on: OVCAR-3 ovarian
OVCAR-4 ovarian = tested on: OVCAR-4 ovarian
OVCAR-5 ovarian = tested on: OVCAR-5 ovarian
OVCAR-8 ovarian = tested on: OVCAR-8 ovarian
PC-3 prostate = tested on: PC-3 prostate
RPMI-8226 leukemia = tested on: RPMI-8226 leukemia
RXF 393 renal = tested on: RXF 393 renal
SF-268 CNS = tested on: SF-268 CNS
SF-295 CNS = tested on: SF-295 CNS
SF-539 CNS = tested on: SF-539 CNS
SK-MEL-2 melanoma = tested on: SK-MEL-2 melanoma
SK-MEL-28 melanoma = tested on: SK-MEL-28 melanoma
SK-MEL-5 melanoma = tested on: SK-MEL-5 melanoma
SK-OV-3 ovarian = tested on: SK-OV-3 ovarian
SN12C renal = tested on: SN12C renal
SNB-19 CNS = tested on: SNB-19 CNS
SR leukemia = tested on: SR leukemia
SW-620 colon = tested on: SW-620 colon
T-47D breast = tested on: T-47D breast
TK-10 renal = tested on: TK-10 renal
U251 glioblastoma = tested on: U251 glioblastoma
UACC-257 melanoma = tested on: UACC-257 melanoma
UACC-62 melanoma = tested on: UACC-62 melanoma
UO-31 renal = tested on: UO-31 renal

C[C@H](CCOc1cccc(CC(=O)O)c1)N(Cc1cccc(C(F)(F)F)c1Cl)CC(c1ccccc1)c1ccccc1
TGI (NCI-H23 lung): 5.31 µM
GI50 (NCI-H322M lung): 4.7 µM
TGI (NCI-H322M lung): 17.3 µM
GI50 (NCI-H460 NSCLC): 3.5 µM
TGI (NCI-H460 NSCLC): 11.3 µM
GI50 (NCI-H522 lung): 2.55 µM
TGI (NCI-H522 lung): 9.37 µM
GI50 (NCI/ADR-RES ovarian): 3.54 µM
TGI (NCI/ADR-RES ovarian): 12.5 µM
GI50 (OVCAR-3 ovarian): 2.79 µM
TGI (OVCAR-3 ovarian): 7.28 µM
GI50 (OVCAR-4 ovarian): 5.04 µM
TGI (OVCAR-4 ovarian): 18.2 µM
GI50 (OVCAR-5 ovarian): 11.2 µM
TGI (OVCAR-5 ovarian): 23.3 µM
GI50 (OVCAR-8 ovarian): 4.56 µM
TGI (OVCAR-8 ovarian): 15.4 µM
GI50 (PC-3 prostate): 4.33 µM
TGI (PC-3 prostate): 13.1 µM
GI50 (RPMI-8226 leukemia): 1.5 µM
TGI (RPMI-8226 leukemia): 2.93 µM
GI50 (RXF 393 renal): 2.1 µM
TGI (RXF 393 renal): 5.24 µM
GI50 (SF-268 CNS): 3.04 µM
TGI (SF-268 CNS): 11 µM
GI50 (SF-295 CNS): 2.64 µM
TGI (SF-295 CNS): 7.41 µM
GI50 (SF-539 CNS): 3.92 µM
TGI (SF-539 CNS): 14.2 µM
GI50 (SK-MEL-2 melanoma): 14 µM
TGI (SK-MEL-2 melanoma): 27 µM
GI50 (SK-MEL-28 melanoma): 15.8 µM
TGI (SK-MEL-28 melanoma): 29.3 µM
GI50 (SK-MEL-5 melanoma): 3.29 µM
TGI (SK-MEL-5 melanoma): 11.1 µM
GI50 (SK-OV-3 ovarian): 9.13 µM
TGI (SK-OV-3 ovarian): 21.2 µM
GI50 (SN12C renal): 5.1 µM
TGI (SN12C renal): 16.2 µM
GI50 (SNB-19 CNS): 4.66 µM
TGI (SNB-19 CNS): 14 µM
GI50 (SR leukemia): 1.73 µM
TGI (SR leukemia): 3.16 µM
GI50 (SW-620 colon): 4.66 µM
TGI (SW-620 colon): 15.7 µM
GI50 (T-47D breast): 1.84 µM
TGI (T-47D breast): 10 µM
GI50 (TK-10 renal): 6.54 µM
TGI (TK-10 renal): 18.8 µM
GI50 (U251 glioblastoma): 2.69 µM
TGI (U251 glioblastoma): 7.64 µM
GI50 (UACC-257 melanoma): 3.35 µM
TGI (UACC-257 melanoma): 13 µM
GI50 (UACC-62 melanoma): 9.52 µM
TGI (UACC-62 melanoma): 21.4 µM
GI50 (UO-31 renal): 5.07 µM
TGI (UO-31 renal): 16.7 µM
